Several values for one entry are separate records, joined by “and”; a condition that tells them apart may be missing. Equal entries are not always repeated.
How the values were obtained:
storage potatoes = assay: Field trial: sprout suppression in storage potatoes, composition applied on a conveyor belt; format: in vivo, Solanum tuberosum
Protocol: The efficacy of sprout inhibitor for sprout suppression in storage potatoes was evaluated by applying the composition of present invention on potatoes on a conveyor belt. The treatment application for trial is at crop storage majority treatment 1) Beginning of sprouting: sprouts visible (<1 mm) and, treatment 2) at end of dormancy (sprouts 2-3 mm). After completion of the test, the potatoes were evaluated on sprouting reduction efficiency. No phytotoxicity was observed.

[1] = tested on: potatoes of the variety Fontane and Innovator; assay: Field trials in Belgium 2018/2019: anti-sprout spray treatment of stored potatoes; format: in vivo, Solanum tuberosum; set-up: Tuber sprate 126 da-a / Tuber sprate 182 da-a: scale not given here; Sprout weight after 55 DA / Sprout LENMAX after 55 DA / Sprout weight 55 DA / Sprout weight 116 DA / Sprout Lenmax 55 DA / Sprout Lenmax 116 DA / Sprout lenmax 126 DA-A / Sprout lenmax 182 DA-A / Sprout weight 126 DA / Sprout weight 182 DA: unit not given here; settings: for Sprout LENMAX after 55 DA: Length maximal; for Sprout Lenmax 55 DA / Sprout weight 55 DA / Tuber sprout % 55 DA / Sprout Lenmax 116 DA / Sprout weight 116 DA / Tuber sprout % 116 DA: Table 4; for Sprout lenmax 126 DA-A / Sprout weight 126 DA / Tuber sprouted (%) 126 DA / Tuber sprate 126 da-a / Sprout lenmax 182 DA-A / Sprout weight 182 DA / Tuber sprouted % 182 DA / Tuber sprate 182 da-a: Table 5
Protocol: Field trials were conducted in Belgium, during 2018 and 2019, in the potato crop. The potatoes of the variety Fontane and Innovator was used for anti-sprout treatment (Variety for processing) came up directly from the field (Harvested on Oct. 5, 2018 and Sep. 19, 2018).
The trial was set up in randomized complete block with single control randomized in each block under commercial storage practice. Potatoes treated 3 days after lifting and skin maturity was good. For application of formulation (carrier: 200 ml water for one treatment) container with rack and spray stick was used.
The first application (A) was carried out Potatoes treated 3 days after lifting. The following applications were carried out at four weeks' interval for each treatment.
(A): right after harvest, before putting into storage.
Storage conditions: The trials are stored in shed at temperature 5-18° C. and all plots of a trial should be stored in the same place.

[2] = Treatment (1): Beginning of sprouting, rate 60 ml/1000 kg
[3] = Treatment (2): At end of dormancy, rate not given
[4] = Treatment (1): Beginning of sprouting, rate 400 ml/1000 kg
[5] = Treatment (1): Beginning of sprouting, rate 195 ml/1000 kg
[6] = Treatment (1): Beginning of sprouting, rate 300 ml/1000 kg

## Cc1ccc(C)c2ccccc12 [1,4-Dimethylnaphthalene]
Storage potatoes; [2]
  Sprout No.: 15.7
  Sprouted (%): 42.80%
Storage potatoes; [3]
  Sprout Number: 34.3
  Sprouted (%): 94.59%

## O=C(O)COc1ccc(Cl)cc1Cl [2,4-D]
Storage potatoes; [4]
  Sprout No.: 12.3
  Sprouted (%): 31.14%
Storage potatoes; [3]
  Sprout Number: 38.7
  Sprouted (%): 99.21%

## CCCCCCC=CC(C)=O [3-Decen-2-One]
Storage potatoes; [5]
  Sprout No.: 9.0
  Sprouted (%): 24.75%
Storage potatoes; [3]
  Sprout Number: 32.7
  Sprouted (%): 100.0%

## C=C(C)C1CC=C(C)C(=O)C1 (stereo not drawn) [Carvone]
Storage potatoes; [6]
  Sprout No.: 12.3
  Sprouted (%): 32.02%
Storage potatoes; [3]
  Sprout Number: 34.0
  Sprouted (%): 96.02%

## COCc1cnc(C2=NC(C)(C(C)C)C(=O)N2)c(C(=O)O)c1 (stereo not drawn) [Imazamox, 5-(methoxymethyl)-2-(4-methyl-5-oxo-4-propan-2-yl-1H-imidazol-2-yl)pyridine-3-carboxylic acid]
[1]; rate 12 g ai/1000 kg
  Sprout weight after 55 DA: 6.89
  Tuber SPROUTED (%) after 55 DA: 78.67%
  Sprout LENMAX after 55 DA: 1.5
[1]; rate 18 g ai/1000 kg
  Sprout weight after 55 DA: 4.09
  Tuber SPROUTED (%) after 55 DA: 73.21%
  Sprout LENMAX after 55 DA: 1.7
[1]; rate 24 g ai/1000 kg
  Sprout weight after 55 DA: 4.2
  Tuber SPROUTED (%) after 55 DA: 75.26%
  Sprout LENMAX after 55 DA: 1.2
[1]; rate 30 g ai/1000 kg
  Sprout weight after 55 DA: 4.13
  Tuber SPROUTED (%) after 55 DA: 71.68%
  Sprout LENMAX after 55 DA: 1.7
[1]; rate 100 ml/1000 kg
  Sprout Lenmax 55 DA: 1.5
  Sprout weight 55 DA: 6.89
  Tuber sprout % 55 DA: 78.67%
  Sprout Lenmax 116 DA: 3.3
  Sprout weight 116 DA: 12.31
  Tuber sprout % 116 DA: 85.86%
  Sprout lenmax 126 DA-A: 2.8 and 5.2
  Tuber sprate 126 da-a: 9.5 and 8.83
  Tuber sprouted % 182 DA: 83.33% and 86.19%
  Tuber sprate 182 da-a: 9.67 and 8.83
[1]; rate 150 ml/1000 kg
  Sprout Lenmax 55 DA: 1.7
  Sprout weight 55 DA: 4.09
  Tuber sprout % 55 DA: 73.21%
  Sprout Lenmax 116 DA: 2.8
  Sprout weight 116 DA: 7.92
  Tuber sprout % 116 DA: 79.15%
  Sprout lenmax 126 DA-A: 1.7
  Sprout weight 126 DA: 2.23 and 1.83
  Tuber sprouted (%) 126 DA: 81.43% and 72.58%
  Tuber sprate 126 da-a: 9.5 and 9.58
  Sprout lenmax 182 DA-A: 1 and 0.7
  Sprout weight 182 DA: 3.77 and 3.13
  Tuber sprouted % 182 DA: 73.1% and 75.45%
  Tuber sprate 182 da-a: 9.75
[1]; rate 200 ml/1000 kg
  Sprout Lenmax 55 DA: 1.2
  Sprout weight 55 DA: 4.2
  Tuber sprout % 55 DA: 75.26%
  Sprout Lenmax 116 DA: 2
  Sprout weight 116 DA: 7.07
  Tuber sprout % 116 DA: 81.59%
  Sprout lenmax 126 DA-A: 2.2 and 2.1
  Sprout weight 126 DA: 1.93 and 1.75
  Tuber sprouted (%) 126 DA: 73.58% and 75.44%
  Tuber sprate 126 da-a: 9.67 and 9.75
  Sprout lenmax 182 DA-A: 1.7 and 1
  Sprout weight 182 DA: 5.77 and 3.3
  Tuber sprouted % 182 DA: 77.93% and 65.99%
  Tuber sprate 182 da-a: 9.58 and 9.67
[1]; rate 250 ml/1000 kg
  Sprout Lenmax 55 DA: 1.7
  Sprout weight 55 DA: 4.13
  Tuber sprout % 55 DA: 71.68%
  Sprout Lenmax 116 DA: 1.3
  Sprout weight 116 DA: 4.92
  Tuber sprout % 116 DA: 71.93%
  Sprout lenmax 126 DA-A: 0.9
  Sprout weight 126 DA: 1.65
  Tuber sprouted (%) 126 DA: 75.06%
  Tuber sprate 126 da-a: 9.75
  Sprout lenmax 182 DA-A: 1.2
  Sprout weight 182 DA: 3.53
  Tuber sprouted % 182 DA: 74.98%
  Tuber sprate 182 da-a: 9.67
[1]; rate 50 ml/1000 kg
  Sprout lenmax 126 DA-A: 3.7
  Sprout weight 126 DA: 6.54
  Tuber sprouted (%) 126 DA: 88.47%
  Tuber sprate 126 da-a: 8.83
  Sprout lenmax 182 DA-A: 4.2
  Sprout weight 182 DA: 23
  Tuber sprouted % 182 DA: 88.1%
  Tuber sprate 182 da-a: 8.67
[1]; as compared to other treatments such as maleic hydrazide, CIPC
  sprout control over time (in words): effective sprout control over an extended period of time
[1]; comment on Table 3
  inhibition of sprouts (in words): effective for inhibition of sprouts
[1]; comment on Table 3, as compared to maleic hydrazide
  sprout weight (in words): an advantage was found
[1]; comment on Table 5, dose rate 250 ml/1000 kg
  tubers germinated: 74%
Storage potatoes; [4]
  Sprout No.: 9.7
  Sprouted (%): 24.77%
Storage potatoes; [3]
  Sprout Number: 16.7
  Sprouted (%): 42.54%

— patent US20220202012A1, “SPROUT INHIBITOR FOR POTATO AND METHOD OF USE THEREOF” (UPL Limited, priority 2019, published 2022)
